Converted amounts (≈) assume the structure as drawn. Structures can show the parent of a compound that is named as a salt. Where two headings read alike, the source gives them in different places.
Key:
[1] = test system: Acinetobacter baumannii ATCC17978; experiment: Minimal Inhibitory Concentration (MIC) assay; assay type: cell-based; conditions: read-out: MIC AB. ATCC17978
Method: Minimal Inhibitory Concentration Protocol (MIC) Assay:
Table 2 provides the in vitro potency of the compounds of present invention obtained against the strain Acinetobacter baumannii ATCC17978, which was assessed by an MIC (Minimal Inhibitory Concentration) assay as follows.
Test compounds were prepared from 10 mM DMSO stock solutions. The top dose was diluted from 10 mM to 2.5 mM by DMSO, followed by serial 2-fold 11 points dilutions in DMSO in a master plate (Greiner, Cat No: 651201). 2 μL compounds were transferred from the master plate into a new 96-well assay plate (Costar, 3599).
The growth medium […] Mueller Hinton Broth (CAMHIB) was prepared by adding 22 g powder (BD, 212322) in 1 L purified water, autoclaved, and supplemented with sterilized CaCl2 (20 mg per liter) and MgCl2 (10 mg per liter).
Vials of each of the test microorganisms were maintained frozen in the vapor phase of a liquid nitrogen freezer. Took out the bacterial strain ATCC 17978 from liquid nitrogen freezer, thawed it at room temperature, and diluted the bacterial in the CAMHB medium to achieve a final inoculum of 2×10^5 CFU/mL. 98 μL of the adjusted bacteria suspension was dispensed to the assay plate and pipetted 5 times.
Then the assay plates were incubated for 20 hours at 35±2° C. in ambient air with humidity. Following incubation, MIC […] value, the lowest concentration of drug that inhibits visible growth of the microorganism, was recorded by visual judgment of bacterial growth through magnification mirror of MIC reader, and the assay plates were photographed with Qcount system as image raw data. Meanwhile, the D600 of assay plates was recorded with SpectraMax Plus384 as GD raw data.

[2] = test system: Acinetobacter baumannii ATCC17961; experiment: Antimicrobial susceptibility testing: 90% growth inhibitory concentration (IC90) determination; assay type: cell-based; conditions: Acinetobacter baumannii, ATCC17961, 16 h, read-out: ATCC 17961 IC90
Outline: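 A. baumannii ATCC17961 at ~5×10^5 CFU/ml in Iso-Sensitest broth exposed to 10-point twofold dilutions (e.g. 50–0.097 μM final), 35±2° C. OD600 read every 20 minutes over 16h; IC50 and IC90 derived from inhibition during logarithmic growth.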

[3] = Acinetobacter baumannii ATCC17978, CAMHB medium, 20 hours at 35±2° C., visual reading
[4] = 90% growth inhibitory concentration, Acinetobacter baumannii ATCC17961, Iso-Sensitest broth, OD 600 nm over 16 h
[5] = Acinetobacter baumannii, ATCC17978, 20 h

Row | Compound | MIC [1, 3] | IC90 [2, 4] | MIC [1, 5] | IC90 [2]
1 | COCCn1nc(C)c(-c2ccc(-c3cnc(C(=O)Nc4ccc(C(=O)N5CCN(C(=O)C[N+]6(C)C[C@@H](O)[C@H](O)C6)CC5)c(Cl)c4)n3C)c(F)c2F)c1C (racemic) [Example C12, N-[3-chloro-4-[4-[2-[(3R,4R)-3,4-dihydroxy-1-methyl-pyrrolidin-1-ium-1-yl]acetyl]piperazine-1-carbonyl]phenyl]-5-[2,3-difluoro-4-[1-(2-methoxyethyl)-3,5-dimethyl-pyrazol-4-yl]phenyl]-1-methyl-imidazole-2-carboxamide; formate] | 1.2 µM | 153 nM | – | –
2 | COCCn1nc(C)c(-c2ccc(-c3cnc(C(=O)Nc4ccc(C(=O)N5CCN(C(=O)C6CC[N+](C)(C)CC6O)CC5)c(Cl)c4)n3C)c(F)c2F)c1C (stereo not shown) [Example D4, N-[3-chloro-4-[4-(3-hydroxy-1,1-dimethyl-piperidin-1-ium-4-carbonyl)piperazine-1-carbonyl]phenyl]-5-[2,3-difluoro-4-[1-(2-methoxyethyl)-3,5-dimethyl-pyrazol-4-yl]phenyl]-1-methyl-imidazole-2-carboxamide; formate] | 1.56 µM | 178 nM | – | –
3 | COCCn1cc(-c2ccc(-c3cnc(C(=O)Nc4ccc(C(=O)N5CCN(C(=O)C[N+]6(C)CCC(O)(CO)CC6)CC5)c(Cl)c4)n3C)c(F)c2F)c(C)n1 (stereo not shown) [Example D18, N-[3-chloro-4-[4-[2-[4-hydroxy-4-(hydroxymethyl)-1-methyl-piperidin-1-ium-1-yl]acetyl]piperazine-1-carbonyl]phenyl]-5-[2,3-difluoro-4-[1-(2-methoxyethyl)-3-methyl-pyrazol-4-yl]phenyl]-1-methyl-imidazole-2-carboxamide; formate] | 1.23 µM | 58 nM | – | –
4 | COCCn1cc(-c2ccc(-c3cnc(C(=O)Nc4ccc(C(=O)N5CCN(C(=O)C6CCNCC6O)CC5)c(C)c4)n3C)c(F)c2F)c(C)n1 (stereo not shown) [Example D22, 5-[2,3-difluoro-4-[1-(2-methoxyethyl)-3-methyl-pyrazol-4-yl]phenyl]-N-[4-[4-(3-hydroxypiperidine-4-carbonyl)piperazine-1-carbonyl]-3-methyl-phenyl]-1-methyl-imidazole-2-carboxamide; formic acid] | – | – | 1.1 µM (≈ 0.775 µg/mL) | 199 nM
5 | COCCn1ncc(-c2ccc(-c3cnc(C(=O)Nc4ccc(C(=O)N5CCN(C(=O)C6CCCN6)CC5)c(Cl)c4)n3C)c(F)c2F)c1C (stereo not shown) [Example D29, N-[3-chloro-4-[4-(pyrrolidine-2-carbonyl)piperazine-1-carbonyl]phenyl]-5-[2,3-difluoro-4-[1-(2-methoxyethyl)-5-methyl-pyrazol-4-yl]phenyl]-1-methyl-imidazole-2-carboxamide; 2,2,2-trifluoroacetic acid] | 0.45 µM (≈ 0.313 µg/mL) | < 20 nM | – | –
6 | COCCn1cc(-c2ccc(-c3cnc(C(=O)Nc4ccc(C(=O)N5CCN(C(=O)C6CC[N+](C)(C)CC6)CC5)c(Cl)c4)n3C)c(F)c2F)c(CF)n1 [Example F29, N-[3-chloro-4-[4-(1,1-dimethylpiperidin-1-ium-4-carbonyl)piperazine-1-carbonyl]phenyl]-5-[2,3-difluoro-4-[3-(fluoromethyl)-1-(2-methoxyethyl)pyrazol-4-yl]phenyl]-1-methyl-imidazole-2-carboxamide; chloride] | 4.73 µM | 280 nM | – | –
7 | COCCn1cc(-c2ccc(-c3cnc(C(=O)Nc4ccc(C(=O)N5CCN(C(=O)C6CC[N+](C)(C)CC6)CC5)c(Cl)c4)n3C)c(F)c2F)c(Cl)n1 [Example F30, N-[3-chloro-4-[4-(1,1-dimethylpiperidin-1-ium-4-carbonyl)piperazine-1-carbonyl]phenyl]-5-[4-[3-chloro-1-(2-methoxyethyl)pyrazol-4-yl]-2,3-difluoro-phenyl]-1-methyl-imidazole-2-carboxamide; formate] | 1.19 µM | 97 nM | – | –
8 | COCCn1cc(-c2ccc(-c3cnc(C(=O)Nc4ccc(C(=O)N5CCN(C(=O)C6CC[N+](C)(C)CC6)CC5)c(Cl)c4)n3C)c(F)c2F)c(-c2ccccc2)n1 [Example F49, N-[3-chloro-4-[4-(1,1-dimethylpiperidin-1-ium-4-carbonyl)piperazine-1-carbonyl]phenyl]-5-[2,3-difluoro-4-[1-(2-methoxyethyl)-3-phenyl-pyrazol-4-yl]phenyl]-1-methyl-imidazole-2-carboxamide; formate] | 2.5 µM | 1520 nM | – | –
9 | Cc1nn(CC(=O)NC2CCC[N+](C)(C)C2)cc1-c1ccc(-c2cnc(C(=O)Nc3ccc(C(=O)N4CCN(C(=O)C5CC[N+](C)(C)CC5)CC4)c(Cl)c3)n2C)c(F)c1F (stereo not shown) [Example G24, N-[3-chloro-4-[4-(1,1-dimethylpiperidin-1-ium-4-carbonyl)piperazine-1-carbonyl]phenyl]-5-[4-[1-[2-[0,1-dimethylpiperidin-1-ium-3-yl)amino]-2-oxo-ethyl]-3-methyl-pyrazol-4-yl]-2,3-difluoro-phenyl]-1-methyl-imidazole-2-carboxamide; diformate] | – | – | 3.85 µM | 508 nM

Continued, in another order:

Row | MIC [1, 3] | IC90 [2, 4] | Compound | MIC [1, 5] | IC90 [2]
10 | 0.66 µM | 185 nM | CO[C@H]1CCCC[C@@H]1NC(=O)Cn1cc(-c2ccc(-c3cnc(C(=O)Nc4ccc(C(=O)N5CCN(C(=O)C6CC[N+](C)(C)CC6)CC5)c(Cl)c4)n3C)c(F)c2F)c(C)n1 (racemic) [Example G32, N-[3-chloro-4-[4-(1,1-dimethylpiperidin-1-ium-4-carbonyl)piperazine-1-carbonyl]phenyl]-5-[2,3-difluoro-4-[1-[2-[[(1S,2S)-2-methoxycyelohexyl]amino]-2-oxo-ethyl]-3-methyl-pyrazol-4-yl]phenyl]-1-methyl-imidazole-2-carboxamide; formate] | – | –
11 | 0.6 µM | 110 nM | COCCn1ncc(-c2ccc(-c3c(Cl)nc(C(=O)Nc4ccc(C(=O)N5CCN(C(=O)C6CC[N+](C)(C)CC6)CC5)c(Cl)c4)n3C)c(F)c2F)c1C [Example F53, 4-chloro-N-[3-chloro-4-[4-(1,1-dimethylpiperidin-1-ium-4-carbonyl)piperazine-1-carbonyl]phenyl]-5-[2,3-difluoro-4-[1-(2-methoxyethyl)-5-methyl-pyrazol-4-yl]phenyl]-1-methyl-imidazole-2-carboxamide; formate] | – | –
12 | 2.32 µM | 432 nM | Cn1c(-c2ccc(-c3cn[nH]c3-c3ccccn3)c(F)c2F)cnc1C(=O)Nc1ccc(C(=O)N2CCN(C(=O)C3CC[N+](C)(C)CC3)CC2)c(Cl)c1 [Example I1, N-[3-chloro-4-[4-(1,1-dimethylpiperidin-1-ium-4-carbonyl)piperazine-1-carbonyl]phenyl]-5-[2,3-difluoro-4-[5-(2-pyridyl)-1H-pyrazol-4-yl]phenyl]-1-methyl-imidazole-2-carboxamide; formate] | – | –
13 | 0.58 µM | – | Cn1c(-c2ccc(-c3cn[nH]c3-c3cscn3)c(F)c2F)cnc1C(=O)Nc1ccc(C(=O)N2CCN(C(=O)C3CC[N+](C)(C)CC3)CC2)c(Cl)c1 [Example I5, N-[3-chloro-4-[4-(1,1-dimethylpiperidin-1-ium-4-carbonyl)piperazine-1-carbonyl]phenyl]-5-[2,3-difluoro-4-(5-thiazol-4-yl-1H-pyrazol-4-yl)phenyl]-1-methyl-imidazole-2-carboxamide; formate] | – | –
